Data on one substance can be found in US9365851B2, “Spalt-like transcription factor 4 (SALL4) and uses thereof” (National University of Singapore, priority 2011, dated 2016).

In data set [1] the test system is OV90. Description: Peptide treatment of ovarian cancer cells. The data set is classed as cell-based. The method, then:
Mut-peptide: mutant peptide; WT-peptide: wild-type peptide.
To understand the mechanism(s) of SALL4 function(s), SALL4-associated proteins were identified by tandem mass spectrometry. Components of the Mi-2/nucleosome remodeling and deacetylase (NuRD) complex were found in SALL4-immunocomplexes along with HDAC activity in ESCs with endogenous SALL4 expression and 293T cells overexpressing SALL4. The SALL4-mediated transcriptional regulation was tested on one potential target gene: Phosphatase and Tensin Homolog (Pten). Pten was confirmed as SALL4 downstream targets by chromatin-immunoprecipitation (ChIP), and its expression level, when tested by quantitative reverse transcription polymerase chain reaction (qRT-PCR), was decreased in 293T cells overexpressing SALL4. […] A small peptide that can block the oncogenic role of SALL4 in repressing Pten has been generated.

Data set [2] deals with SNU-398. Description: Cellular uptake of FITC-labeled peptide. The data set is classed as cell-based, human. The method, then: Cells were grown typically in 6 well plates (35 mm dish) to 50-70% confluence. Usually the transfect ion efficiency is somehow cell type specific. 2 mM peptide was diluted 4 times in PBS (2 ul+6 ul) (For FITC peptidedo not dilute the 2 mM stock). For each transfection reaction tube with 100 ul PBS+1 ul diluted peptide was set up. Chariot reagent was diluted 1:10 in ddH2O and for each transfection a 94 ul H2O tube+6 ul diluted Chariot was prepared (No master mix for more than 4 transfections). The 2 tubes were carefully mixed by pipetting up and down and incubated 30 min. at room temperature. Medium was aspirated from the dish (well) and cells were overlay with the mix. 400 ul serum free medium was added and cells were incubated further for 1 h 37 C (cell incubator). 500 ul complete medium (with 10% serum) was finally added. If cells are not very sensitive to serum starvation (cancer cell lines) 5% serum could be used.
Fluorescent and Confocal microscopy was performed on cells treated with FITC labeled peptides with or without of transfection reagent depending on the cell type. Cells were mounted on cover slips using mounting media with DAPI (Invitrogen) and in some cases cytoskeleton dye (Invitrogen).
In order to evaluate their cellular uptake and localization, the N terminus of these peptides was labeled with fluorescein isothiocyanate (FITC). Despite the net positive charge of these peptides, their uptake by the cells is cell-type specific. Some cell lines such as HL-60 (an AML cell line) allowed the peptide to enter the cells without any modification or carrier, and some cell lines were not penetrable at all. In order to achieve a similar level of peptide delivery in most cell types, a Chariot Transfection Reagent (Active Motif) was used as a peptide carrier, as directed from the manufacturer. All cell types used in the study described herein were subjected to individual evaluation of the percentage of the cells in which the peptide was delivered as well as the duration of time during which they sustained the labeled peptide in the cells. After Chariot treatment, confocal microscopy studies confirmed uptake of these peptides throughout the cell, including nuclei (as evidenced by DAPI overlay, FIG. 1B).
Next tested was the cellular uptake and localization of these peptides in various types of cells using FITC-labeled wild type or scrambled peptides. Despite the net positive charge of these peptides, their penetration into cells is cell type-specific. Some cell lines, such as HL-60 (an AML cell line), allowed peptide entry without any modification or facilitator, while others such as SNU-398 were not penetrable at all. […] The overall success rate of peptide uptake by the cells was above 95% with Pep-1, as evaluated by flow cytometry (FIG. 9A). […]

Data set [3] concerns AN3CA cells. The experiment in a line: Cell viability assay (MTT/MTS). The data set is classed as cell-based, human. To be noted: AN3CA (high SALL4, no PTEN). The method, then:
Cell viability assay (MTT) (Invitrogen) was performed according to the manufacturer's instructions. Briefly—10000 cells were seeded in 100 ul medium in 96 well plates. The next day cells were treated as indicated on the figures. At the designated time after the treatment 20 ul of 5 mg/ml MTT solution was added to each well. After 3.5 h incubation at 37 C the medium was removed and the reaction was terminated with a solution of 4 mM HCl, 0.1% Nondet P-40 (NP40) all in isopropanol in dark on orbital shaker for […]. at room temperature. The absorbance was read at 590 nm with a reference filter of 620 nm in Spectromax M3 (ABI) spectrophotometer.
Multiple leukemic and solid tumor cancer cell lines with high or low/no SALL4 expression (FIG. 10A) were chosen to test the biological effect(s) of the wild type peptide. Wild type or scrambled peptide was delivered into tumor cells at various concentrations, and their effects on cells were evaluated 72 hours post-treatment by the MTS cell viability assay. […] The effect of wild type peptide is SALL4-specific, as it had no effect on KBM5, an AML cell line with undetectable endogenous SALL4 expression. We were surprised to see that the wild type peptide had no effect on a high SALL4-expressing endometrioid cancer cell line, AN3CA. […] Therefore, expression of PTEN was evaluated in AN3CA cells along with other cell lines. […]

Like-named read-outs stand apart in the source and are kept apart here.

Regarding “H-MSRRKQAKPQHI-OH [wt peptide, MSRRKQAKPQHI]”, the entries for the “living cells / cell death” value in data set [1] and in data set [1] (listed as small peptide) were “decreased living cells” and “resulted in cell death”, respectively. Also, the “peptide uptake (cells with peptide)” value in data set [2] (SNU-398, no carrier) turned out to be 0%; in data set [2] (SNU-398, with Chariot) it was 40%. Moreover, the “cells showing FITC-labeled peptide uptake” value in data set [2] (SNU-398, with Pep-1 carrier, flow cytometry) is “Over 90%”. The cell viability result in data set [3] was “had no effect”.
